One compound from ChEMBL document CHEMBL1140912, “Extra binding region induced by non-zinc chelating inhibitors into the S1' subsite of matrix metalloproteinase 8 (MMP-8)” (J Med Chem, 2009) can be followed below.

Bounds are passed on as bounds.

For one assay, the target named is Stromelysin-1 (Homo sapiens, UniProt P08254). Briefly: Inhibition of human recombinant MMP3.
Another assay concerns the target Collagenase 3 (Homo sapiens, UniProt P45452). Briefly: Inhibition of human recombinant MMP13.
For assay [1], the target named is 72 kDa type IV collagenase (Homo sapiens, UniProt P08253). Briefly: Inhibition of human recombinant MMP2.
The target in assay [2] is Macrophage metalloelastase (Homo sapiens, UniProt P39900). Briefly: Inhibition of human recombinant MMP12.
The target in assay [3] is Matrix metalloproteinase-14 (Homo sapiens, UniProt P50281). Briefly: Inhibition of human recombinant MMP14.
The target of a further assay is T1, Interstitial collagenase (Homo sapiens, UniProt P03956).
T1 sequence (P03956 whole entry): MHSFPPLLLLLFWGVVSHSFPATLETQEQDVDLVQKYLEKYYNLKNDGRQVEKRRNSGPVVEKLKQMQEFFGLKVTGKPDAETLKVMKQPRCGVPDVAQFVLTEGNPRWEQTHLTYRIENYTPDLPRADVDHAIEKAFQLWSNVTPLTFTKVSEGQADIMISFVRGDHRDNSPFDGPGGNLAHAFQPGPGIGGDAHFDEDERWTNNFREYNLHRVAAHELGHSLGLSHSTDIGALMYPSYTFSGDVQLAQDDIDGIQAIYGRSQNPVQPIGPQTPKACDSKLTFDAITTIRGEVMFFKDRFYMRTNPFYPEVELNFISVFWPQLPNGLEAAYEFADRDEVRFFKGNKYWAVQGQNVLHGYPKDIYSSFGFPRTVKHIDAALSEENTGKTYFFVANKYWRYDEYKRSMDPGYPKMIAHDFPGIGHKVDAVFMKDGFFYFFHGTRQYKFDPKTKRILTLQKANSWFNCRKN
Briefly: Inhibition of human recombinant MMP1.

The target of assay [4] is Matrix metalloproteinase-9 (Homo sapiens, UniProt P14780). The assay can be described thus: Inhibition of human recombinant MMP9.
For another assay, the target named is T2, Matrilysin (Homo sapiens, UniProt P09237).
T2 sequence (P09237 whole entry): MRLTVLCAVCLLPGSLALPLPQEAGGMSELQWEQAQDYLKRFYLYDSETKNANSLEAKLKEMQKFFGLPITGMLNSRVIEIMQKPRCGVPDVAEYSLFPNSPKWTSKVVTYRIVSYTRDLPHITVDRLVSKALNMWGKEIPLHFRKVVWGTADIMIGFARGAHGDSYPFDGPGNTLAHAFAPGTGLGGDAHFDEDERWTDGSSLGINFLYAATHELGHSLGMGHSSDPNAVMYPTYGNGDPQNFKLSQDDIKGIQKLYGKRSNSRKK
The assay can be described thus: Inhibition of human recombinant MMP7.

Stromelysin-1, sequence (P08254 whole entry): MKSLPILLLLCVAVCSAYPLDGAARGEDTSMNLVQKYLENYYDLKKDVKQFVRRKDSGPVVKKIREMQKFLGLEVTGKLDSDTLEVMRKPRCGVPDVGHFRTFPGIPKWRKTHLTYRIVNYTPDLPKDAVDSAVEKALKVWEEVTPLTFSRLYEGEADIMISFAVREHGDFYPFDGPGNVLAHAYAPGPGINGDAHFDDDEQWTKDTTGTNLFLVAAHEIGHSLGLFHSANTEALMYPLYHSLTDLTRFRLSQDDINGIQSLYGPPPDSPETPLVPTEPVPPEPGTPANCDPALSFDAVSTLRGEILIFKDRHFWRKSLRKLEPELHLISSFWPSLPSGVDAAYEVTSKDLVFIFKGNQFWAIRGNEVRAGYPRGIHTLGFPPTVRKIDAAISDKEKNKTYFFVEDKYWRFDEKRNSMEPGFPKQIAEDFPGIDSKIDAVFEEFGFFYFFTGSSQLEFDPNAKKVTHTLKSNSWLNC
Matrix metalloproteinase-9, sequence (P14780 whole entry): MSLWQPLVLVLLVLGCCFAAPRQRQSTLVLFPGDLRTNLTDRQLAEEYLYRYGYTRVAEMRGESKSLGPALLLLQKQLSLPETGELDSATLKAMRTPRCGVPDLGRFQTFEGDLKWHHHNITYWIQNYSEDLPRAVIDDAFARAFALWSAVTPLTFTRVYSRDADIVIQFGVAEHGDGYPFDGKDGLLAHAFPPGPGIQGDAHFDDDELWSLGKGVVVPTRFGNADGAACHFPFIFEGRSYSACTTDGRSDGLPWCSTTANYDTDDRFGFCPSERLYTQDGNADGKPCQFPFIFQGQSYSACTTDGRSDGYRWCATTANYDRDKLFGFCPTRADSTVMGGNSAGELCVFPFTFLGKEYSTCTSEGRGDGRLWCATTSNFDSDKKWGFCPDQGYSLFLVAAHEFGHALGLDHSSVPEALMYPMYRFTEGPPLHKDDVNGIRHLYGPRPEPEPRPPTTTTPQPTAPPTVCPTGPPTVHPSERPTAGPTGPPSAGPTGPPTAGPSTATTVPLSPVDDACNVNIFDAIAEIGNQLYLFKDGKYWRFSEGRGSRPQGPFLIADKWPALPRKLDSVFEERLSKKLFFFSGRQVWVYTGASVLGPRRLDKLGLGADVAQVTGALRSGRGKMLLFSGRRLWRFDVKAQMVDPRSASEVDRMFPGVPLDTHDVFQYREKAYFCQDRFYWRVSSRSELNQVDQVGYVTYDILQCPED
72 kDa type IV collagenase, sequence (P08253 whole entry): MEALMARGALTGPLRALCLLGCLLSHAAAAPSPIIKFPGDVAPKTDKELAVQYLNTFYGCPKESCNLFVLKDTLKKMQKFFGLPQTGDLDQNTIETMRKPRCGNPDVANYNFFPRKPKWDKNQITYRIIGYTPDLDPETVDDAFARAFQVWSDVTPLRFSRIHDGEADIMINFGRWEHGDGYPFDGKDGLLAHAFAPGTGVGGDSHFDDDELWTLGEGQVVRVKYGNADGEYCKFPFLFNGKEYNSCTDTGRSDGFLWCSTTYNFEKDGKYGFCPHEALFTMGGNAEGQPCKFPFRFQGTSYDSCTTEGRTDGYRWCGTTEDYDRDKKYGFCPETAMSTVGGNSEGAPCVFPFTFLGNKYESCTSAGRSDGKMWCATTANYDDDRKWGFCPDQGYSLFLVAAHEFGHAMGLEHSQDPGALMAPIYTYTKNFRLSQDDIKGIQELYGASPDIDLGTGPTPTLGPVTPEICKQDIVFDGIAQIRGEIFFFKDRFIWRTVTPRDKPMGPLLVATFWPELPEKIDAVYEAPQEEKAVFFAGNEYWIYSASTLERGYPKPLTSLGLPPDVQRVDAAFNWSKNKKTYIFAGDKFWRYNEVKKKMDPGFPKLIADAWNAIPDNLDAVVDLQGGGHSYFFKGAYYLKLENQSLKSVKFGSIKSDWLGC
Macrophage metalloelastase, sequence (P39900 whole entry): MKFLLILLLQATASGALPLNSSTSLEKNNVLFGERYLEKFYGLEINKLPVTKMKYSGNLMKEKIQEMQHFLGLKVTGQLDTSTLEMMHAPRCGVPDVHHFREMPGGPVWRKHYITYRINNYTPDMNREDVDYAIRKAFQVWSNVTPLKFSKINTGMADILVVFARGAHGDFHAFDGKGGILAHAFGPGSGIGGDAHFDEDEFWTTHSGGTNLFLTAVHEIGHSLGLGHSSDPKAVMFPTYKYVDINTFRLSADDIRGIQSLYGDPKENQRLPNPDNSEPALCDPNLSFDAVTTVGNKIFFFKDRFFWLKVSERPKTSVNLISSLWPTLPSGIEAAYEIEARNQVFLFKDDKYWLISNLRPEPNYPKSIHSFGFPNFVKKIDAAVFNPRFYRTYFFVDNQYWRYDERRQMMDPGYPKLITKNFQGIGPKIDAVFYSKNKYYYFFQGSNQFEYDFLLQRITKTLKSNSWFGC

In the case of `NC(=O)CC1CCCc2sc3nc(C(=O)NCc4ccc5c(c4)NC(=O)CO5)[nH]c(=O)c3c21` (racemic), the IC50 (usually the point on the concentration scale where inhibition reaches its midpoint) at Stromelysin-1 is above 2.5 µM; at Collagenase 3 it was below 0.025 µM; in assay [1], above 10 µM; in assay [2] it was above 10 µM; in assay [3] it was above 10 µM; on Interstitial collagenase, above 10 µM. The IC50 (in assay [4]; on Matrilysin) was above 10 µM throughout.
